# Measurements published in ChEMBL document CHEMBL4304783, “Discovery of a Novel Selective Dual Peroxisome Proliferator-Activated Receptor α/δ Agonist for the Treatment of Primary Biliary Cirrhosis” (ACS Med Chem Lett, 2019).
# The source made the active and inactive calls. The calls are words filed in the database; no cut-off is given here.
# Columns and labels:
# [1] = target: T1, Peroxisome proliferator-activated receptor alpha (Homo sapiens, UniProt Q07869); assay: Agonist activity at PPARalpha (unknown origin) incubated for 3 to 16 hrs by pathhunter nuclear hormone receptor assay
# T1 sequence (Q07869 whole entry): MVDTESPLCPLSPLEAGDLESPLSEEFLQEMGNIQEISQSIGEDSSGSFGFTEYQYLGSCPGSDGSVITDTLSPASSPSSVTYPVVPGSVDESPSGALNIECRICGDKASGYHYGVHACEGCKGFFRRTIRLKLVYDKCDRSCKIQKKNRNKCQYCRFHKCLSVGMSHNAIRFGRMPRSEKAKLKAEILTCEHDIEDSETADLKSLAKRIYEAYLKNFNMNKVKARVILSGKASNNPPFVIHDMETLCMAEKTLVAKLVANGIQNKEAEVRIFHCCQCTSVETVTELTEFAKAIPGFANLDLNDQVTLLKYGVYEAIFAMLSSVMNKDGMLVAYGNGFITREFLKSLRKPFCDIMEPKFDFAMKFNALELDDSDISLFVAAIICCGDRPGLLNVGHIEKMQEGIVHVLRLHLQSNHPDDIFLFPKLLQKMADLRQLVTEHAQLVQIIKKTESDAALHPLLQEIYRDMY
# [2] = target: T2, Peroxisome proliferator-activated receptor delta (Homo sapiens, UniProt Q03181); assay: Agonist activity at PPARbeta (unknown origin) incubated for 3 to 16 hrs by pathhunter nuclear hormone receptor assay
# T2 sequence (Q03181 whole entry): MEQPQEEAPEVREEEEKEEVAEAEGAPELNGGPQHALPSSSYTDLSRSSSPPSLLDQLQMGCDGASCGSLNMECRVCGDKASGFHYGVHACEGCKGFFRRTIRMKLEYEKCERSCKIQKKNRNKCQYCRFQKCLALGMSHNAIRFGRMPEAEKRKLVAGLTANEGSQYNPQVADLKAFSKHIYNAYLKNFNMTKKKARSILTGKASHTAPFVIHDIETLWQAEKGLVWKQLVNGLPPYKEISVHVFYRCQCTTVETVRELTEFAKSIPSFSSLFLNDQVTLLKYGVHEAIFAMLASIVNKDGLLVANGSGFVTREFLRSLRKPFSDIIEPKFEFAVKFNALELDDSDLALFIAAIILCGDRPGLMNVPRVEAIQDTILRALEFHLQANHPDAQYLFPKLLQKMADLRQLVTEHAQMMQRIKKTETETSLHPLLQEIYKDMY
# [3] = target: T3, Peroxisome proliferator-activated receptor alpha (Homo sapiens) (UniProt Q07869); assay: Agonist activity at PPARalpha (unknown origin) incubated for 3 to 16 hrs by pathhunter nuclear hormone receptor assay relative to GW7647; set-up: concentration or dose not given beside the values
# T3 sequence (whole entry): T1 sequence (Q07869 whole entry)
# [4] = target: T4, Peroxisome proliferator-activated receptor delta (Homo sapiens) (UniProt Q03181); assay: Agonist activity at PPARbeta (unknown origin) incubated for 3 to 16 hrs by pathhunter nuclear hormone receptor assay relative to L-165,041
# T4 sequence (whole entry): T2 sequence (Q03181 whole entry)
# [5] = target: T5, Peroxisome proliferator-activated receptor gamma (Homo sapiens) (UniProt P37231); assay: Agonist activity at PPARgamma (unknown origin) incubated for 3 to 16 hrs by pathhunter nuclear hormone receptor assay relative to Troglitazone
# T5 sequence (whole entry): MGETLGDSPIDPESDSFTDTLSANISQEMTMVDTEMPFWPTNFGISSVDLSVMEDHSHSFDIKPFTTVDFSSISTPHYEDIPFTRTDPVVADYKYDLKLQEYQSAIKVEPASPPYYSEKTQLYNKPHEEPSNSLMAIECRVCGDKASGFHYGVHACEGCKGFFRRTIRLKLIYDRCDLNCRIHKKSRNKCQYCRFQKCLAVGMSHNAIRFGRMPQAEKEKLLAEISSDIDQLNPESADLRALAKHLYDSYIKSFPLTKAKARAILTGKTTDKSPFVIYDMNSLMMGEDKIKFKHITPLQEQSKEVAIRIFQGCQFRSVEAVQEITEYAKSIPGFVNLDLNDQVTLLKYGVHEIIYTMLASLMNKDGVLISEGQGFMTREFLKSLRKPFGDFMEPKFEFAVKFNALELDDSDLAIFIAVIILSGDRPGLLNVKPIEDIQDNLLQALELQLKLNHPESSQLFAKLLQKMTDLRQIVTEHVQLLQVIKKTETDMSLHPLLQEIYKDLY
# [6] = Stability in human plasma assessed as remaining compound incubated for 2 hrs; format: ADME, cell-free; details: read-out: Stability
# Cytochrome P450 2C9 = Cytochrome P450 2C9 (Homo sapiens, UniProt P11712); assay: Inhibition of CYP2C9 in human liver microsomes using diclofenac as substrate incubated for 10 mins followed by substrate addition further incubated for 10 mins by LC-MS/MS analysis; format: ADME
# Cytochrome P450 2C19 = Cytochrome P450 2C19 (Homo sapiens, UniProt P33261); assay: Inhibition of CYP2C19 in human liver microsomes using S-mephenytoin as substrate incubated for 10 mins followed by substrate addition further incubated for 10 mins by LC-MS/MS analysis; format: ADME
# Cytochrome P450 2D6 = Cytochrome P450 2D6 (Homo sapiens, UniProt P10635); assay: Inhibition of CYP2D6 in human liver microsomes using dextromethorphan as substrate incubated for 10 mins followed by substrate addition further incubated for 10 mins by LC-MS/MS analysis; format: ADME
# [7] = target: Voltage-gated inwardly rectifying potassium channel KCNH2 (Homo sapiens, UniProt Q12809); assay: Inhibition of human ERG expressed in CHO-K1 cells by whole-cell patch clamp assay; format: cell-based
# [8] = Volume of distribution at steady state in C57BL/6J mouse at 1 mg/kg, iv measured upto 24 hrs by LC-MS/MS analysis; format: ADME, organism-based; details: in vivo, read-out: Vdss
# [9] = Half life in C57BL/6J mouse at 1 mg/kg, iv measured upto 24 hrs by LC-MS/MS analysis; format: ADME, organism-based; details: in vivo
# [10] = AUC (0 to last) in C57BL/6J mouse at 1 mg/kg, iv measured upto 24 hrs by LC-MS/MS analysis; format: ADME, organism-based; set-up: dose 1 mg/kg, time 0 - last, route intravenous; details: in vivo
# [11] = AUC (0 to last) in C57BL/6J mouse at 10 mg/kg, po measured upto 24 hrs by LC-MS/MS analysis; format: ADME, organism-based; set-up: dose 10 mg/kg, route oral, time 0 - last; details: in vivo
# [12] = Volume of distribution at steady state in Sprague-Dawley rat at 1 mg/kg, iv measured upto 24 hrs by LC-MS/MS analysis; format: ADME, organism-based; details: in vivo, read-out: Vdss
# [13] = Clearance in Sprague-Dawley rat at 1 mg/kg, iv measured upto 24 hrs by LC-MS/MS analysis; format: ADME, organism-based; details: in vivo
# [14] = AUC (0 to last) in Sprague-Dawley rat at 10 mg/kg, po measured upto 24 hrs by LC-MS/MS analysis; format: ADME, organism-based; set-up: dose 10 mg/kg, route oral, time 0 - last; details: in vivo
# [15] = Cmax in Sprague-Dawley rat at 10 mg/kg, po measured upto 24 hrs by LC-MS/MS analysis; format: ADME, organism-based; set-up: dose 10 mg/kg, route oral; details: in vivo
# Rattus norvegicus [16] = assay: Hepatoprotective activity in Sprague-Dawley rat assessed as reduction in ANIT-stimulated total bilirubin level at 3 mg/kg, ig administered for 8 days by biochemical analysis; format: functional, organism-based
# Rattus norvegicus [17] = assay: Hepatoprotective activity in Sprague-Dawley rat assessed as reduction in ANIT-stimulated inflammatory score at 3 mg/kg, ig administered for 8 days by hematoxylin and eosin staining based mopho-metric analysis relative to control; format: functional; set-up: scale not given: the % may be the effect or the level left
# Rattus norvegicus [18] = assay: Hepatoprotective activity in Sprague-Dawley rat assessed as reduction in ANIT-stimulated fibrosis area at 3 mg/kg, ig administered for 8 days by hematoxylin and eosin staining based mopho-metric analysis relative to control; format: functional; set-up: scale not given: the % may be the effect or the level left
# Sequence of Voltage-gated inwardly rectifying potassium channel KCNH2 (Q12809 whole entry): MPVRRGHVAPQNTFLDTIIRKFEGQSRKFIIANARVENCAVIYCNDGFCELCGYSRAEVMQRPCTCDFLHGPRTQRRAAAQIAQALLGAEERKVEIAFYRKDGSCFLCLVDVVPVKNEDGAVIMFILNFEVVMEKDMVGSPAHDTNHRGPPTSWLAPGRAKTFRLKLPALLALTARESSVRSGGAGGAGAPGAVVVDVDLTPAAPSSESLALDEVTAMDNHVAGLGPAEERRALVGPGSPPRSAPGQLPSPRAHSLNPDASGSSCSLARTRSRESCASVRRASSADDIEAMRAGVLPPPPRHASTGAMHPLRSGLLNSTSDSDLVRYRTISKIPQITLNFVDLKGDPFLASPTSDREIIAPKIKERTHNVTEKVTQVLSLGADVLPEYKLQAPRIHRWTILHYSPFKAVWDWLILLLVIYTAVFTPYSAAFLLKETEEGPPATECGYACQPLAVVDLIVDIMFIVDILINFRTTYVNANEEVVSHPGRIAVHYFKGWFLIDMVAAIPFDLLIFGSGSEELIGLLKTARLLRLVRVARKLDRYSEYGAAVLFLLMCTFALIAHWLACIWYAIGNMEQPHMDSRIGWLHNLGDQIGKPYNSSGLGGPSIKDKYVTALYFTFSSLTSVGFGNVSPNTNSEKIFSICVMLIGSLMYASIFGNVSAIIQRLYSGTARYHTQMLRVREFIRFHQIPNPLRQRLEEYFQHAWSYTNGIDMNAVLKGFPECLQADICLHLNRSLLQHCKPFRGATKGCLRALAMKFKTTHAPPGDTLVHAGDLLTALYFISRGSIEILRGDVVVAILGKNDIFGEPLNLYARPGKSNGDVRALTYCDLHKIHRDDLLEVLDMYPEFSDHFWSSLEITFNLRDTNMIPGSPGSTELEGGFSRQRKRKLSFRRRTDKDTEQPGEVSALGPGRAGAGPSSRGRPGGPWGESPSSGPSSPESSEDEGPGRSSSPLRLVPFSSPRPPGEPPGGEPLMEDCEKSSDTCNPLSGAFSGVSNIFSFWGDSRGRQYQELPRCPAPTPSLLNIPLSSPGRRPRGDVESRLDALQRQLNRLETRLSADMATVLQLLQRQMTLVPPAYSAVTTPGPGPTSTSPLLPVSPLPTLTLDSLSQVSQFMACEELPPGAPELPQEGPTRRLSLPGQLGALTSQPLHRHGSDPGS
# Sequence of Cytochrome P450 2C9 (P11712 whole entry): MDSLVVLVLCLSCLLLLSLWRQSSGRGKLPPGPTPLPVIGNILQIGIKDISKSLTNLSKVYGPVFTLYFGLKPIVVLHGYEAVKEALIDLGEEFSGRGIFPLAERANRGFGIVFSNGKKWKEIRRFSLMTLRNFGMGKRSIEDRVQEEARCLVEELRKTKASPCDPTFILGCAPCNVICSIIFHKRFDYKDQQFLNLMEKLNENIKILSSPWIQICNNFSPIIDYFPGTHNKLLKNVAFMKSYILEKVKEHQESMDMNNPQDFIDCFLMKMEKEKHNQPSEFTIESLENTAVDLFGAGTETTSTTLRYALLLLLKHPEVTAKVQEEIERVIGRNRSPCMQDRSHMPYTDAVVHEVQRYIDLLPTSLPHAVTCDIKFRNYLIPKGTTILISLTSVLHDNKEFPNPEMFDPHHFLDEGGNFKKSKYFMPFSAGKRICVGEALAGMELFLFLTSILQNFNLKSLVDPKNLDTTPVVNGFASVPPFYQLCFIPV
# Sequence of Cytochrome P450 2C19 (P33261 whole entry): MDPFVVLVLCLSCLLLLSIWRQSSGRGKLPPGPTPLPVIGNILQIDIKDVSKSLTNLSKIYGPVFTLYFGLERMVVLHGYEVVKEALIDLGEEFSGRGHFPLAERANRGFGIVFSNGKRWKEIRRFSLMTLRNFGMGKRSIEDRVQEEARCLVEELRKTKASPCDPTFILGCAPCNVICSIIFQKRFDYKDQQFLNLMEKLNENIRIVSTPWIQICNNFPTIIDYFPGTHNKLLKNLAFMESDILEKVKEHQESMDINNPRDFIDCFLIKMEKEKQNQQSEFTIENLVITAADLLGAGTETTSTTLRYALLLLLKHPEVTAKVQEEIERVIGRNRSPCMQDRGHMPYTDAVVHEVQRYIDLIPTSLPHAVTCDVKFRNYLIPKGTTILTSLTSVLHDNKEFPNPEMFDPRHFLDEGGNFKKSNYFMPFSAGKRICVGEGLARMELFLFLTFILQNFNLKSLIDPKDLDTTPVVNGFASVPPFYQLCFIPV
# Sequence of Cytochrome P450 2D6 (P10635 whole entry): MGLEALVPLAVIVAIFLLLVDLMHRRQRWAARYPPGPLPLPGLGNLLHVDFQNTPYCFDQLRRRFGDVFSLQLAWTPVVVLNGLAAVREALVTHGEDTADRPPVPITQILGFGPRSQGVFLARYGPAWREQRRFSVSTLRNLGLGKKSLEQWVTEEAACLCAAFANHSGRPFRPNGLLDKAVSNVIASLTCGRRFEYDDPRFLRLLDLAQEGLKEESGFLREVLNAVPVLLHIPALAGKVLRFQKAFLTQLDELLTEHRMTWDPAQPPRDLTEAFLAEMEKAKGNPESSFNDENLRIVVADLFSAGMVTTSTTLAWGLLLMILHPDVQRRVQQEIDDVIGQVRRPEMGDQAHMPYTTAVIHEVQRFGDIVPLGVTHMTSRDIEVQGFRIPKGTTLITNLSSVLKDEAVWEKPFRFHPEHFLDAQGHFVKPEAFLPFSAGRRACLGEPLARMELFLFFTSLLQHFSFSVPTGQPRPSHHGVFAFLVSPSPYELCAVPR
smiles,measurement,setting,value
Cc1cc(Cc2cc(-c3ccc(Br)cc3)on2)cc(C)c1OC(C)(C)C(=O)O,EC50,[1],0.008 µM
same,EC50,[2],0.005 µM
same,Activity,[3],92%
same,Activity,[4],79%
same,Activity,[5],110%
same,remaining at 2 h,[6],88%
same,IC50,Cytochrome P450 2C9,20 µM
same,IC50,Cytochrome P450 2C19,> 50 µM
same,IC50,Cytochrome P450 2D6,> 50 µM
same,IC50,[7],> 30 µM
same,Vd,[8],0.53 L/kg
same,half-life,[9],3.6 h
same,AUC(0-t) at 24 h,[10],10.6 µM·h
same,AUC(0-t) at 24 h,[11],63.2 µM·h
same,Vd,[12],0.16 L/kg
same,clearance,[13],0.35 mL/min/kg
same,AUC(0-t) at 24 h,[14],561 µM·h
same,Cmax,[15],65.3 µM
same,Activity,Rattus norvegicus [16],Active
same,Activity,Rattus norvegicus [17],30%
same,Activity,Rattus norvegicus [18],28%
